Data taken from US20070179060A1, “6-(Poly-substituted aryl)-4-aminopicolinates and their use as herbicides” (priority 2006, published 2007).

Legend:
[1] = test system: Triticum aestivum (spring wheat); assay: Postemergence herbicidal activity of mixtures in cereal crops; type: in vivo; conditions: after 3 weeks
Method: (§1) Seeds of the desired test plant species were planted and reared as described in “Evaluation of Postemergence Herbicidal Safening in Cereal Crops” (section 37).
(§2) Treatments consisted of compound (as listed in Tables 6 and 7), fluroxypyr methylheptyl ester (MHE), and clopyralid monoethanolamine (MEA) salt alone and in combination. Weighed amounts were placed in 25 mL glass vials and dissolved in a volume of 97:3 v/v acetone/DMSO to obtain 4.5 mg ai/mL stock solutions. […] The concentrated stock solutions were diluted to 1.5 mg ai/mL with the addition of 2 volumes of an aqueous mixture containing acetone, water, isopropyl alcohol, DMSO, Agri-dex crop oil concentrate, and Triton® X-77 surfactant in a 64.7:26.0:6.7:2.0:0.7:0.01 v/v ratio. A dilution solution was prepared by mixing 1 volume of 97:3 v/v acetone/DMSO and 2 volumes of an aqueous mixture containing acetone, water, isopropyl alcohol, DMSO, Agri-dex crop oil concentrate, and Triton® X-77 surfactant in a 64.7:26.0:6.7:2.0:0.7:0.01 v/v ratio. Compound requirements are based upon a 12 mL application volume at a rate of 187 L/ha. Spray solutions of fluroxypyr MHE, clopyralid MEA, and experimental compound mixtures were prepared by adding the stock solutions to the appropriate amount of dilution solution to form 12 mL spray solution with active ingredients in two- and three-way combinations. Formulated compounds were applied to the plant material with an overhead Mandel track sprayer equipped with a 8002E nozzles calibrated to deliver 187 L/ha over an application area of 0.503 square meters at a spray height of 18 inches (43 cm) above average plant canope. Control plants were sprayed in the same manner with the solvent blank.
(§3) The treated plants and control plants were placed in a greenhouse as described above and watered by sub-irrigation to prevent wash-off of the test compounds. After 3 weeks the condition of the test plants as compared with that of the control plants was determined visually and scored on a scale of 0 to 100 percent where 0 corresponds to no injury and 100 corresponds to complete kill.
(§4) Colby's equation was used to determine the herbicidal effects expected from the mixtures (Colby, S. R. 1967. Calculation of the synergistic and antagonistic response of herbicide combinations. Weeds 15:20-22.).
(§5) The following equation was used to calculate the expected activity of mixtures containing two active ingredients, A and B: Expected=A+B−(A×B/100) • A=observed efficacy of active ingredient A at the same concentration as used in the mixture. • B=observed efficacy of active ingredient B at the same concentration as used in the mixture.
(§6) The following equation was used to calculate the expected activity of mixtures containing three active ingredients, A, B, and C: Expected=A+B+C−(A×B+B×C+A×C)/100+(A×B×C)/10000 • A=observed efficacy of active ingredient A at the same concentration as used in the mixture. • B=observed efficacy of active ingredient B at the same concentration as used in the mixture. • C=observed efficacy of active ingredient C at the same concentration as used in the mixture.

Matricaria chamomilla = assay: as above; type: in vivo; conditions: after 3 weeks
Method: as §1, §2, §3, §4, §5, §6

[2] = test system: Hordeum vulgare (winter barley); assay: as above; type: in vivo; conditions: after 3 weeks
Method: as §1, §2, §3, §4, §5, §6

[3] = test system: redroot pigweed (Amaranthus retroflexus); assay: Postemergence herbicidal activity; type: in vivo; conditions: Amaranthus retroflexus, post-emergence, 336 h, post-emergent, 140 g ai/ha, after 14 days; read-out: % Control AMARE
Procedure, shortened: (§7)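 Plants grown 7-21 days in greenhouse (about 15 h photoperiod, 23-29° C day, 22-28° C night) to first or second true leaf stage. Compounds in acetone/water/isopropanol/DMSO carrier with crop oil concentrate and Triton X-155 sprayed overhead at 187 L/ha; controls received solvent blank. Plants sub-irrigated afterwards; dose responses analysed by probit analysis.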

[4] = test system: velvetleaf (Abutilon theophrasti); assay: Postemergence herbicidal activity; type: in vivo; conditions: Abutilon theophrasti, post-emergence, 336 h, post-emergent, 140 g ai/ha, after 14 days; read-out: % Control ABUTH
Procedure, shortened: as §7

[5] = test system: lambsquarter (Chenopodium album); assay: Postemergence herbicidal activity; type: in vivo; conditions: Chenopodium album, post-emergence, 336 h, post-emergent, 140 g ai/ha, after 14 days; read-out: % Control CHEAL
Procedure, shortened: as §7

[6] = test system: redroot pigweed (Amaranthus retroflexus); assay: Preemergence herbicidal activity; type: in vivo; conditions: Amaranthus retroflexus, pre-emergence, 480 h; pre-emergent, 140 g ai/ha, after 20-22 days; read-out: % Control AMARE
Procedure, shortened: (§8)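 Seeds sown in 70:30 loam (pH about 8.1, about 1.5% organic matter) and sand mix, then sprayed preemergence at 187 L/ha with a track sprayer; controls received solvent blank. Pots kept in greenhouse, about 15 h photoperiod, about 23-29° C. day and 22-28° C. night, top-irrigated.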

[7] = test system: velvetleaf (Abutilon theophrasti); assay: Preemergence herbicidal activity; type: in vivo; conditions: Abutilon theophrasti, pre-emergence, 480 h; pre-emergent, 140 g ai/ha, after 20-22 days; read-out: % Control ABUTH
Procedure, shortened: as §8

[8] = test system: lambsquarter (Chenopodium album); assay: Preemergence herbicidal activity; type: in vivo; conditions: Chenopodium album, pre-emergence, 480 h; pre-emergent, 140 g ai/ha, after 20-22 days; read-out: % Control CHEAL
Procedure, shortened: as §8

[9] = test system: rice (Orysa sativa var. Japonica); assay: Herbicidal activity in transplanted paddy rice; type: in vivo; conditions: Oryza sativa, 504 h; transplant rice (crop), paddy water application, 35 g ai/ha, after 3 weeks
Procedure, shortened: (§9)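 Rice seedlings transplanted at second to third leaf stage and weeds from seed were grown in flooded mud pots in a greenhouse (~29/26 °C, 14 h photoperiod). At second or third true leaf stage, acetone stock solutions were injected into the paddy water at the high rate and ½× to 1/16× dilutions. Solvent-blank controls.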

Scirpus juncoides = assay: Herbicidal activity in transplanted paddy rice; type: in vivo; conditions: Schoenoplectiella juncoides, 504 h; paddy water application, 35 g ai/ha, after 3 weeks; read-out: % Control SCPJU
Procedure, shortened: as §9

Cyperus difformis = assay: Herbicidal activity in transplanted paddy rice; type: in vivo; conditions: Cyperus difformis, 504 h; paddy water application, 35 g ai/ha, after 3 weeks; read-out: % Control CYPDI
Procedure, shortened: as §9

Echinochloa crus-galli = assay: Herbicidal activity in transplanted paddy rice; type: in vivo; conditions: Echinochloa crus-galli, 504 h; paddy water application, 35 g ai/ha, after 3 weeks; read-out: % Control ECHCG
Procedure, shortened: as §9

Monochoria vaginalis = assay: Herbicidal activity in transplanted paddy rice; type: in vivo; conditions: Pontederia vaginalis, 504 h; paddy water application, 35 g ai/ha, after 3 weeks; read-out: % Control MOOVA
Procedure, shortened: as §9

Galium aparine = assay: Postemergence herbicidal activity in cereal crops; type: in vivo; conditions: Galium aparine, post-emergence, 480 h, post-emergent, 17.5 g ai/ha, after 20-22 days; read-out: % Control GALAP
Procedure, shortened: (§10)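 Plants are raised in a greenhouse for 7-36 days and used at the second to third true leaf stage. Compounds in a mixed organic–aqueous carrier with crop oil and surfactant are sprayed postemergence at 187 L/ha. Treated plants return to the greenhouse with sub-irrigation, alongside blank-sprayed controls.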

Veronica persica = assay: Postemergence herbicidal activity in cereal crops; type: in vivo; conditions: Veronica persica, post-emergence, 480 h, post-emergent, 17.5 g ai/ha, after 20-22 days; read-out: % Control VERPE
Procedure, shortened: as §10

[10] = test system: wheat (Triticum aestivum); assay: Postemergence herbicidal activity in cereal crops; type: in vivo; conditions: Triticum aestivum, post-emergence, 480 h; crop, post-emergent, 17.5 g ai/ha, after 20-22 days; read-out: % Control TRZAS
Procedure, shortened: as §10

Papaver rhoeas = assay: Postemergence herbicidal activity in cereal crops; type: in vivo; conditions: Papaver rhoeas, post-emergence, 480 h, post-emergent, 17.5 g ai/ha, after 20-22 days; read-out: % Control PAPRH
Procedure, shortened: as §10

barley (Hordeum vulare) = assay: Postemergence herbicidal activity in cereal crops; type: in vivo; conditions: Hordeum, post-emergence, 480 h; crop, post-emergent, 17.5 g ai/ha, after 20-22 days; read-out: % Control HORVS
Procedure, shortened: as §10

Lamium purpureum = assay: Postemergence herbicidal activity in cereal crops; type: in vivo; conditions: Lamium purpureum, post-emergence, 480 h; post-emergent, 17.5 g ai/ha, after 20-22 days; read-out: % Control LAMPU
Procedure, shortened: as §10

[11] = Table 6, applied alone, 35 g ai/ha
[12] = Table 7, applied alone, 35 g ai/ha
[13] = Table 7, applied alone, 70 g ai/ha

SMILES | melting point [°C] | % Control TRZAS Ob [1, 11] [%] | % Control TRZAS Ob [1, 12] [%] | % Control TRZAS Ob [1, 13] [%] | % Control MATCH Ob (Matricaria chamomilla; [11]) [%] | % Control MATCH Ob (Matricaria chamomilla; [12]) [%] | % Control MATCH Ob (Matricaria chamomilla; [13]) [%] | % Control HORVW Ob [2, 11] [%] | % Control HORVW Ob [2, 12] [%] | % Control HORVW Ob [2, 13] [%] | pest or weed control at 140 g/ha [3] [%] | pest or weed control at 140 g/ha [4] [%] | pest or weed control at 140 g/ha [5] [%] | pest or weed control at 140 g/ha [6] [%] | pest or weed control at 140 g/ha [7] [%] | pest or weed control at 140 g/ha [8] [%] | further results
NCCO.O=C(O)c1nc(Cl)ccc1Cl [Clopyralid MEA, clopyralid monoethanolamine (MEA) salt] |  | 0 | 0 | 0 | 20 | 5 | 40 | 0 | 0 | 0 |  |  |  |  |  |  | 
COC(=O)c1nc(-c2ccc(F)c(OC)c2Cl)cc(N)c1Cl [Compound 74, 4-Amino-3-chloro-6-(2-chloro-4-fluoro-3-methoxyphenyl)pyridine-2-carboxylic acid, methyl ester] | 145 to 146 | 25 |  |  | 10 |  |  | 0 |  |  | 90 | 100 | 100 | 95 | 100 | 95 | 
CCCCCCC(C)OC(=O)COc1nc(F)c(Cl)c(N)c1Cl (centres unmarked) [Fluroxypyr MHE, fluroxypyr methylheptyl ester] |  | 0 | 0 | 0 | 0 | 0 | 0 | 0 | 0 | 0 |  |  |  |  |  |  | 

Now from value to molecule, other results behind:

melting point [°C] | SMILES | % Control TRZAS Ob [1, 11] [%] | % Control TRZAS Ob [1, 12] [%] | % Control TRZAS Ob [1, 13] [%] | % Control MATCH Ob (Matricaria chamomilla; [11]) [%] | % Control MATCH Ob (Matricaria chamomilla; [12]) [%] | % Control MATCH Ob (Matricaria chamomilla; [13]) [%] | % Control HORVW Ob [2, 11] [%] | % Control HORVW Ob [2, 12] [%] | % Control HORVW Ob [2, 13] [%] | pest or weed control at 140 g/ha [3] [%] | pest or weed control at 140 g/ha [4] [%] | pest or weed control at 140 g/ha [5] [%] | pest or weed control at 140 g/ha [6] [%] | pest or weed control at 140 g/ha [7] [%] | pest or weed control at 140 g/ha [8] [%] | further results
167 to 168 | COc1c(C)cc(F)c(-c2cc(N)c(Cl)c(C(=O)O)n2)c1F [Compound 93, 4-Amino-3-chloro-6-(2,6-difluoro-3-methoxy-4-methylphenyl)pyridine-2-carboxylic acid] | 15 |  |  | 45 |  |  | 10 |  |  | 100 | 100 | 100 | 100 | 100 | 100 | 
176 to 177 | COc1c(Br)ccc(-c2cc(N)c(Cl)c(C(=O)O)n2)c1F [Compound 120, 4-Amino-6-(4-bromo-2-fluoro-3-methoxyphenyl)-3-chloropyridine-2-carboxylic acid] |  |  |  |  |  |  |  |  |  | 90 | 100 | 95 |  |  |  | pest or weed control at 35 g/ha [9]: 0%; pest or weed control at 35 g/ha (Scirpus juncoides): 95%; pest or weed control at 35 g/ha (Cyperus difformis): 100%; pest or weed control at 35 g/ha (Echinochloa crus-galli): 40%; pest or weed control at 35 g/ha (Monochoria vaginalis): 100%; pest or weed control at 17.5 g/ha (Galium aparine): 80%; pest or weed control at 17.5 g/ha (Veronica persica): 50%; plant injury at 17.5 g/ha [10]: 0%; pest or weed control at 17.5 g/ha (Papaver rhoeas): 95%; pest or weed control at 17.5 g/ha (barley (Hordeum vulare)): 0%; pest or weed control at 17.5 g/ha (Lamium purpureum): 95%
